# From patent US20030017462A1, “Control samples for use as standards for evaluating apoptosis in a selected tissue” (priority 2001, published 2003)
# Entries after “also recorded” stand apart in the source; their conditions may differ.
# System: thymic tissue
# Assay: Thymic apoptosis in microgravity culture (RCCS bioreactor), TUNEL assay
# Type: cell-based, Lewis rats
# Details: for Percent Area of Stain: 1 μM dexamethasone in culture media, microgravity bioreactor, 37° C.; for Ratio DEX/CON (Percent Area of Stain): 1 μM dexamethasone vs control media
# Protocol: The following media and solutions were prepared:
# 1. Phosphate buffered saline (PBS) for rinsing tissue.
# 2. Control media, consisting of RPMi 1640 containing 15% heat-inactivated fetal bovine serum, 100 μg/mL penicillin, 100 μg/mL streptomycin, 100 μg/mL L-glutamine, and 2.5 μg/mL amphotericin B.
# 3. Experimental media, consisting of control media containing 1 μM dexamethasone.
# Two microgravity bioreactors (Synthecon, Inc., Houston Tex.) were utilized; one containing control media and one containing experimental media.
# The thymus was removed from two Lewis rats, washed in cold PBS to remove blood, and stripped of excess tissue. Thymus tissue was cut into sections of about 3 mm^3, while in cold media.
# The bioreactors were filled with control (CON) or experimental (DEX) media. Approximately 24 thymus pieces were placed in each bioreactor, for incubation at 37° C. at a rotation speed appropriate for the size of tissue piece and sedimentation rate, in order to provide constant free-fall. Tissue pieces were removed from each bioreactor every half hour for the first 3 hours, then every hour to the sixth hour, then at hour 10 and hour 24.
# Tissue was fixed in 10% neutral buffered formalin or Histochoice™ (Amresco, Inc., Solon Ohio), processed to paraffin and sectioned for histochemical analysis. Formalin-fixed sections were stained with hematoxylin and eosin. Immunohistochemical staining for Lewis Y expression was performed with Histochoice TM fixed samples on a DAKO autostainer, using a monoclonal mouse anti-human Lewis γ antibody (DAKO, Carpinteria Calif.). A peroxidase labeled streptavidin-biotin detection system (Zymed, So. San Francisco Calif.) and diaminobenzidine (DAB) chromagen were used.
# In situ labeling of apoptosis was measured by terminal deoxynucleotidyl transferase mediated dUTP nick end labeling (TUNEL) method with a cell death detection kit (Boehringer Mannheim Gmbh, Mannheim, Germany). Using digital image analysis, immunostained sections were analyzed for intensity stain index (ISI=[ΣP0×I0]/total tissue area in pixels), where P0=number of pixels at each intensity and I0=the intensity units (Doolin et al., J. Surg. Res. 59: 191-197, 1995). TUNEL was quantified as total apoptotic cell number divided by total tissue area.
compound,measurement,setting,value
"C[C@@H]1C[C@H]2[C@@H]3CCC4=CC(=O)C=C[C@]4(C)[C@@]3(F)[C@@H](O)C[C@]2(C)[C@@]1(O)C(=O)CO [DEX, dexamethasone]",Percent Area of Stain,time 0 hours,6.04%
same,Percent Area of Stain,time 3 hours,21.68%
same,Percent Area of Stain,time 6 hours,33.29%
same,Percent Area of Stain,time 10 hours,43.82%
same,Percent Area of Stain,time 24 hours,43.30%
same,Effect on rate of apoptosis of thymic tissue,"1 μM dexamethasone in culture medium, RCCS bioreactor, compared with control culture",increases the rate of apoptosis; also recorded: increased the rate of apoptosis up to 10 hours post-initiation
same,Ratio DEX/CON (Percent Area of Stain),time 0 hours,1.00
same,Ratio DEX/CON (Percent Area of Stain),time 3 hours,1.46
same,Ratio DEX/CON (Percent Area of Stain),time 6 hours,1.58
same,Ratio DEX/CON (Percent Area of Stain),time 10 hours,1.37
same,Ratio DEX/CON (Percent Area of Stain),time 24 hours,0.87
same,"Time to maximum level of apoptosis, as measured by TUNEL",thymic tissue in RCCS bioreactor in the presence of dexamethasone (24 hours without),10 h
